Values quoted from earlier work as cited in patent publication US20140308726A1, “Controlling Bacterial Biofilms in Ethanol Production” (ANITOX CORPORATION, priority 2011, published 2014).
Like-named read-outs stand apart in the source and are kept apart here.

Columns and labels:
Lactobacillus [1] = conditions: 600 mg/L
yeast = conditions: 8 g/L; beet molasses batch fermentation
Lactobacillus [2] = conditions: 8.6 ppm Nisin combined with 0.1% Tween 20

Molecule: O=C(O)CCC(=O)O [Succinic acid]
- Reduction of Lactobacillus concentrations (Lactobacillus [1]; by itself): 78%
- Reduction of Lactobacillus concentrations (Lactobacillus [1]; in the presence of ethanol): up to 96%

Molecule: CC(O)C(=O)O (centres unmarked) [lactic acid]
- Reduction of alcohol production rate (yeast): 80%
- Reduction of yeast viability (yeast): 95%

Molecule: Nisin
- Delay of the lag phase of lactobacillus (Lactobacillus [2]): 12 h
